Measurements: patent publication US20080193428A1, “Composition and Method for Modulating and Maintaining Vaginal Bacterial Flora and Vaginal Acidity” (Shenzhen Phlora Biotechnology Limited, priority 2005, published 2008)

System: lactobacilli
Assay: Inhibition of growth and acid-production of lactobacilli at different pH
Assay type: cell-based

## benzoic acid [benzoic acid and/or its sodium salt]
Under a relatively high pH value (e.g., pH>4.6)
  inhibition effect on the growth and acid-production of lactobacilli: became weak
Under a relatively low pH value (e.g., pH<4.0)
  inhibition effect on the growth and acid-production of lactobacilli: relatively strong inhibition effect
